Laboratory results reported in ChEMBL document CHEMBL4265934 (Eur J Med Chem, 2018).
Calls of active or inactive are those of the source. The rule behind the calls is not given here.

Legend:
[1] = biological target: T1, Phosphatidylinositol 4,5-bisphosphate 3-kinase catalytic subunit delta isoform (Homo sapiens) (UniProt O00329); experiment: Inhibition of PI3Kdelta in human basophils assessed as reduction in IgE-induced degranulation by measuring CD63 expression level at 100 uM by flow cast assay relative to control; parameters: scale not given: the % may be the effect or the level left
T1 sequence (whole entry): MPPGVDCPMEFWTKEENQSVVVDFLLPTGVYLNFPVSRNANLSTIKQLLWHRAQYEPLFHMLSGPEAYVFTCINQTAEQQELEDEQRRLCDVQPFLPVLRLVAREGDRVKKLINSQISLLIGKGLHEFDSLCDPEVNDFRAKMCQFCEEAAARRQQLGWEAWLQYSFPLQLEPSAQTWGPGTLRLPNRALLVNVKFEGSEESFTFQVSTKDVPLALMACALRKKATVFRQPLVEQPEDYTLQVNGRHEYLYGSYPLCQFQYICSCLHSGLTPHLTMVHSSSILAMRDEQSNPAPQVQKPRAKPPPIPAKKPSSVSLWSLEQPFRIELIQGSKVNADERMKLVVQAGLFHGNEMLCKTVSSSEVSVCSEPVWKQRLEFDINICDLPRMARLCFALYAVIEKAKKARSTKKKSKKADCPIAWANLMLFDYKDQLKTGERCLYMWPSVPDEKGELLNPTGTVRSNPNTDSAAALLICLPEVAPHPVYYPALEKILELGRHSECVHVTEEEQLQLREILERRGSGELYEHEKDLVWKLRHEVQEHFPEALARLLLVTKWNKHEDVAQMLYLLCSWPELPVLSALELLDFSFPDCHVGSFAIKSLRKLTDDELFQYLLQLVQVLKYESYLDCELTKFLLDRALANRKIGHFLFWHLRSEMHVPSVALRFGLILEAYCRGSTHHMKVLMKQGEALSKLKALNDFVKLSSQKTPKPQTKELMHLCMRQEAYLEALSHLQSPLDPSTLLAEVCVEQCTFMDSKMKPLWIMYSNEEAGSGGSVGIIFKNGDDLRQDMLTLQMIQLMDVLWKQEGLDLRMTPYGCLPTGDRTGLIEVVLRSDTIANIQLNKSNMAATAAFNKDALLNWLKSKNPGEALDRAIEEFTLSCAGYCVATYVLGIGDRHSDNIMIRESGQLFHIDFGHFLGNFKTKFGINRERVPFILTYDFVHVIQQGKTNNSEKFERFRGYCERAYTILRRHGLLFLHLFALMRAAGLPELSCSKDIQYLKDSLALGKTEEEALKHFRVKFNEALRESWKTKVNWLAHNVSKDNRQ

[2] = biological target: T1, Phosphatidylinositol 4,5-bisphosphate 3-kinase catalytic subunit delta isoform (Homo sapiens); experiment: Inhibition of PI3Kdelta in human basophils assessed as reduction in IgE-induced degranulation by measuring CD203c expression level at 100 uM by fluorescence assay relative to control; parameters: scale not given: the % may be the effect or the level left
[3] = biological target: PI3-kinase p110-alpha/p85-alpha (Homo sapiens, UniProt P42336); experiment: Inhibition of PI3KCalpha/PIK3R1 (unknown origin); assay type: protein-complex assay
PI3K p110 beta/p85 alpha = PI3K p110 beta/p85 alpha (Homo sapiens, UniProt P42338); experiment: Inhibition of PI3KCbeta/PIK3R1 (unknown origin); assay type: protein-complex assay
[4] = biological target: PI3-kinase p110-delta/p85-alpha (Homo sapiens, UniProt O00329); experiment: Inhibition of PI3KCdelta/PIK3R1 (unknown origin); assay type: protein-complex assay
[5] = biological target: Phosphatidylinositol 4,5-bisphosphate 3-kinase catalytic subunit gamma isoform (Homo sapiens, UniProt P48736); experiment: Inhibition of PI3KCgamma (unknown origin)
Mus musculus [6] = experiment: Anti-asthmatic activity in mouse model of ovalbumin-induced asthma assessed as decrease in methacholine-induced lung resistance at 90 mg/kg, ip daily by plethysmographic method; assay type: functional, organism-based
Mus musculus [7] = experiment: Anti-asthmatic activity in mouse model of ovalbumin-induced asthma assessed as decrease in methacholine-induced lung resistance at 90 mg/kg aerosolized daily by plethysmographic method; assay type: functional, organism-based
Mus musculus [8] = experiment: Anti-inflammatory activity in mouse model of ovalbumin-induced asthma assessed as decrease in total leukocytic infilterate in BAL administered ip daily; assay type: functional, organism-based
Mus musculus [9] = experiment: Anti-inflammatory activity in mouse model of ovalbumin-induced asthma assessed as decrease in total leukocytic infilterate in lungs administered ip daily; assay type: functional, organism-based
Mus musculus [10] = experiment: Anti-inflammatory activity in mouse model of ovalbumin-induced asthma assessed as decrease in eosinophilic infilteration administered ip daily; assay type: functional, organism-based
Mus musculus [11] = experiment: Anti-inflammatory activity in mouse model of ovalbumin-induced asthma assessed as decrease in total leukocytic infilterate in BAL at 90 mg/kg aerosolized daily; assay type: functional, organism-based
Mus musculus [12] = experiment: Anti-inflammatory activity in mouse model of ovalbumin-induced asthma assessed as decrease in eosinophilic infilteration at 90 mg/kg aerosolized daily; assay type: functional, organism-based
Mus musculus [13] = experiment: Anti-inflammatory activity in mouse model of ovalbumin-induced asthma assessed as decrease in neutrophilic infilteration at 90 mg/kg aerosolized daily; assay type: functional, organism-based
Mus musculus [14] = experiment: Anti-inflammatory activity in mouse model of ovalbumin-induced asthma assessed as decrease in macrophage infilteration at 90 mg/kg aerosolized daily; assay type: functional, organism-based
Mus musculus [15] = experiment: Protection against DNFB-induced atopic dermatitis in mouse assessed as reduction in ear thickness at 90 mg/kg, ip measured up to 3 days post DNFB treatment; assay type: functional, organism-based
Mus musculus [16] = experiment: Toxicity in mouse up to 90 mg/kg, ip or iv administered 3 to 5 times/week up to 4 weeks; assay type: organism-based; details: in vivo, 672 h
[17] = biological target: T1, Phosphatidylinositol 4,5-bisphosphate 3-kinase catalytic subunit delta isoform (Homo sapiens); experiment: Inhibition of PI3Kdelta in human basophils assessed as reduction in IgE-induced degranulation by measuring decrease in CD63 expression level by flow cast assay
[18] = biological target: T1, Phosphatidylinositol 4,5-bisphosphate 3-kinase catalytic subunit delta isoform (Homo sapiens); experiment: Inhibition of PI3Kdelta in human basophils assessed as reduction in IgE-induced degranulation by decrease in measuring CD203c expression level by fluorescence assay
Mus musculus [19] = experiment: Anti-asthmatic activity in mouse model of ovalbumin-induced asthma assessed as decrease in methacholine-induced lung resistance at 10 mg/kg, ip daily by plethysmographic method; assay type: functional, organism-based
Mus musculus [20] = experiment: Anti-asthmatic activity in mouse model of ovalbumin-induced asthma assessed as decrease in methacholine-induced lung resistance at 10 mg/kg aerosolized daily by plethysmographic method; assay type: functional, organism-based
Mus musculus [21] = experiment: Anti-inflammatory activity in mouse model of ovalbumin-induced asthma assessed as decrease in total leukocytic infilterate in BAL at 10 mg/kg aerosolized daily; assay type: functional, organism-based
Mus musculus [22] = experiment: Protection against DNFB-induced atopic dermatitis in mouse assessed as reduction in ear thickness administered topically measured up to 4 days post DNFB treatment; assay type: functional, organism-based

Chain of PI3K p110 beta/p85 alpha (P27986 whole entry): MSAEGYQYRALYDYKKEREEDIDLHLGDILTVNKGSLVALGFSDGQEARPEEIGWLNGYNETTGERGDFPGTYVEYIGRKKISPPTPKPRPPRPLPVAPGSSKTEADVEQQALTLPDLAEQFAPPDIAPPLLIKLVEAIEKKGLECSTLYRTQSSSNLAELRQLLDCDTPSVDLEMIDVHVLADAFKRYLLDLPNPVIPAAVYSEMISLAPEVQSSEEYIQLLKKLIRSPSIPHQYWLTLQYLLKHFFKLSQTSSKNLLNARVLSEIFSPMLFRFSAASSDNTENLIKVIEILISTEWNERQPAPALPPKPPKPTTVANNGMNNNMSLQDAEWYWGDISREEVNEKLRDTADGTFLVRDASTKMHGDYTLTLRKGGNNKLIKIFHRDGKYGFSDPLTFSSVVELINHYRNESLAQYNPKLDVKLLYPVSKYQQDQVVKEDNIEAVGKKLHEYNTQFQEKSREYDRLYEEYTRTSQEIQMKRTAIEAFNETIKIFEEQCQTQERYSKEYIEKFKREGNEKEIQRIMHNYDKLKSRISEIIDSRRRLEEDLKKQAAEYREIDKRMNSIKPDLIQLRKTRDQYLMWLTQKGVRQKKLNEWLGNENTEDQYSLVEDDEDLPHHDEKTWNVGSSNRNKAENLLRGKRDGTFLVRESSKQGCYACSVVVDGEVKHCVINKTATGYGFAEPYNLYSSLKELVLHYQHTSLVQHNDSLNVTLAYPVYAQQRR
Chain of PI3K p110 beta/p85 alpha (P42338 whole entry): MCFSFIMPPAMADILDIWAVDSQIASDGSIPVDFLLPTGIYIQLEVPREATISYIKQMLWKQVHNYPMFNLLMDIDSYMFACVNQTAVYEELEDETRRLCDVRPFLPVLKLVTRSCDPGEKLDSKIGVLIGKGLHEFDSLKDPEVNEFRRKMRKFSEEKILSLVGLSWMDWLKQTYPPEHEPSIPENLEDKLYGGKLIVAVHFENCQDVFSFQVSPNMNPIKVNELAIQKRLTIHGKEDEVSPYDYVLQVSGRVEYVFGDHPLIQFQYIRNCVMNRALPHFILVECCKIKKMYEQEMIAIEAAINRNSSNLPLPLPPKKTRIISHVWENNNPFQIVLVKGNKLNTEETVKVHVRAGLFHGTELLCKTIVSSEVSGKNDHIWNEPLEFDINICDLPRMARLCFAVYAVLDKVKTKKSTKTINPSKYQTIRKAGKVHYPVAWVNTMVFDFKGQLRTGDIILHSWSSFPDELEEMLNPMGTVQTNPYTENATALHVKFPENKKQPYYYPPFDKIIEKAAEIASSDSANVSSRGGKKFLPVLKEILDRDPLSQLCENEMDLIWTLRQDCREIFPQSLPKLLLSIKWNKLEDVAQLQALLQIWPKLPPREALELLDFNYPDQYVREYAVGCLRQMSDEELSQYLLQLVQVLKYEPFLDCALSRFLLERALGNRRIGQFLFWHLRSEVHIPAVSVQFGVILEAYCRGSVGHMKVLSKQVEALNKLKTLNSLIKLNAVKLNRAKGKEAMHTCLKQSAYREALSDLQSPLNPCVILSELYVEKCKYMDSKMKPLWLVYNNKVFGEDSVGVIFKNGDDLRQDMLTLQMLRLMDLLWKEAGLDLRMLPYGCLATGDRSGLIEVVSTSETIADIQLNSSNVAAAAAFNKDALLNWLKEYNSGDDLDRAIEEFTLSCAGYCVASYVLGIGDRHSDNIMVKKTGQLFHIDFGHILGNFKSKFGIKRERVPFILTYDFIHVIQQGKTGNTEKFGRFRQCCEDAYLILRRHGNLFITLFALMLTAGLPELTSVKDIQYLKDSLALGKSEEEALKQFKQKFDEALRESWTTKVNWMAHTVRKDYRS
Chain of PI3-kinase p110-delta/p85-alpha (P27986 whole entry, one chain of several, canonical isoform): as the sequence (P27986 whole entry) above
Chain of PI3-kinase p110-alpha/p85-alpha (P27986 whole entry): as above
Chain of PI3-kinase p110-alpha/p85-alpha (P42336 whole entry): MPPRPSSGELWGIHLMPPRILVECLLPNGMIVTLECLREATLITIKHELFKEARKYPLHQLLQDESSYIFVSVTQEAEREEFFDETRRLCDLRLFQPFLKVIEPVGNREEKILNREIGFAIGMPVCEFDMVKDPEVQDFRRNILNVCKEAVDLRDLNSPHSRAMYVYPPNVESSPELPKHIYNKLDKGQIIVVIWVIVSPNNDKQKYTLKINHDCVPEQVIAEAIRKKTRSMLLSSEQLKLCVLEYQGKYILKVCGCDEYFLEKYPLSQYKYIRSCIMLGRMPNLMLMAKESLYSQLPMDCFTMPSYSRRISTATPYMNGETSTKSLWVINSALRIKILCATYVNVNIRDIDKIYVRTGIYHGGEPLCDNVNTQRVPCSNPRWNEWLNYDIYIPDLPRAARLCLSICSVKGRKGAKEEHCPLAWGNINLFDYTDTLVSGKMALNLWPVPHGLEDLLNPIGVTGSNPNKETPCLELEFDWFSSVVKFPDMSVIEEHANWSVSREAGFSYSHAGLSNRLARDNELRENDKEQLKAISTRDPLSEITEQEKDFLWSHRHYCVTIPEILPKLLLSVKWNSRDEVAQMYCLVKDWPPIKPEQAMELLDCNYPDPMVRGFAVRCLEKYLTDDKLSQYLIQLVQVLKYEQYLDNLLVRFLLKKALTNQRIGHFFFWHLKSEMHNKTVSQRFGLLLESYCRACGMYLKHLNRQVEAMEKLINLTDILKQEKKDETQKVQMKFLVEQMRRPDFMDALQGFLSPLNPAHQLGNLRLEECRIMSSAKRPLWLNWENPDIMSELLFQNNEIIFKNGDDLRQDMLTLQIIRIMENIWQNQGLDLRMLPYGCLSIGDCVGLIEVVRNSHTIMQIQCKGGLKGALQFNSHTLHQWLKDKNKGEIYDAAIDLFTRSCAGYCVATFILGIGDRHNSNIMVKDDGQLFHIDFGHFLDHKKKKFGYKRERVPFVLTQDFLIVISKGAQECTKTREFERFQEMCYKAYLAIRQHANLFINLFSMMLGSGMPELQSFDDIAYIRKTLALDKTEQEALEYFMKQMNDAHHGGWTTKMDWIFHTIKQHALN
Chain of Phosphatidylinositol 4,5-bisphosphate 3-kinase catalytic subunit gamma isoform (P48736 whole entry, canonical isoform): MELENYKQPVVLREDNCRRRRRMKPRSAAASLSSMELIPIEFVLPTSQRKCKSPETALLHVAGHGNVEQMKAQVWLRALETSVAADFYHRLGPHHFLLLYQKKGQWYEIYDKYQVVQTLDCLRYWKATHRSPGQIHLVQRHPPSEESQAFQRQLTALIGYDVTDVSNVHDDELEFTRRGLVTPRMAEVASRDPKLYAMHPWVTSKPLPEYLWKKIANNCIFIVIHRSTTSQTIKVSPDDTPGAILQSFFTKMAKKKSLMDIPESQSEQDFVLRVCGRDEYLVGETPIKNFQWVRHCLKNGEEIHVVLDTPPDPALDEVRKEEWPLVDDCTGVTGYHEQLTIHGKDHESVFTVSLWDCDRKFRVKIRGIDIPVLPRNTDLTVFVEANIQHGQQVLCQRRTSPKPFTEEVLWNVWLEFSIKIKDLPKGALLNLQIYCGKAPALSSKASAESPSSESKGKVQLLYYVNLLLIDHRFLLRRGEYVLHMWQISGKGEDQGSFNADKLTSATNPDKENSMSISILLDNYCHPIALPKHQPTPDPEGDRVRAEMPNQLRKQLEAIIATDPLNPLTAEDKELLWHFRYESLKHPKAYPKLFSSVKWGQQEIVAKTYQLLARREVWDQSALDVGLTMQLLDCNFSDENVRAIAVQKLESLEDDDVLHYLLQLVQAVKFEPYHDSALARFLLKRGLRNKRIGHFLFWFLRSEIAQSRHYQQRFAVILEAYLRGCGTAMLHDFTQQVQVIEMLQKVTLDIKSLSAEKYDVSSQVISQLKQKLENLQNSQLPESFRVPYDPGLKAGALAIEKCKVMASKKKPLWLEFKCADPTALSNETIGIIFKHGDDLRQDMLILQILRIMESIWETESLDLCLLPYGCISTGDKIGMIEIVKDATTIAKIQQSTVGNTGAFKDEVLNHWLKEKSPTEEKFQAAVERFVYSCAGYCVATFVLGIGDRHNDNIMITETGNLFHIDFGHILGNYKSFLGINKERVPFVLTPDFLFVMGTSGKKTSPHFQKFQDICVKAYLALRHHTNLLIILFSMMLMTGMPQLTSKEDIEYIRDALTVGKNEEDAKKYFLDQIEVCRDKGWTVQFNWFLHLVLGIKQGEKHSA

Structure (SMILES) | Activity [1] | Activity [2] | further results
COc1ccccc1/C=C/C(=O)c1cc(OC)c(OC)cc1OC | 55% | 65% | –
COc1ccc(/C=C/C(=O)c2cc(OC)c(OC)cc2OC)cc1O | 49% | 62% | –
COc1cccc(OC)c1C(=O)/C=C/c1ccc(C(F)(F)F)cc1 | 64% | 81% | –
COc1cc(OC)c(/C=C/C(=O)c2ccc(OC)c(OC)c2)c(OC)c1 | 91% | 95% | –
COc1cc(OC)c(OC)cc1/C=C/C(=O)c1cc(OC)c(OC)cc1OC | 66% | 70% | –
COc1ccc(C(=O)/C=C/c2cc(OC)c(OC)c(OC)c2)c(O)c1 | 92% | 93% | –
COc1cccc(OC)c1/C=C/C(=O)c1c(OC)cc(OC)c(C2CCN(C)CC2)c1O | 4% | 41% | –
COc1cc(OC)c(/C=C/C(=O)c2c(OC)cccc2OC)c(OC)c1 | 78% | 81% | –
COc1cc(OC)c(/C=C/C(=O)c2c(OC)cc(OC)c(C3CCN(C)CC3)c2O)c(OC)c1 | – | – | IC50 [3]: > 10 µM; IC50 (PI3K p110 beta/p85 alpha): > 10 µM; IC50 [4]: 7.2 µM; IC50 [5]: 10 µM; Activity (Mus musculus [6]): Active; Activity (Mus musculus [7]): Active; Activity (Mus musculus [8]): Dose-dependent effect; Activity (Mus musculus [9]): Dose-dependent effect; Activity (Mus musculus [10]): Dose-dependent effect; Activity (Mus musculus [11]): inactive; Activity (Mus musculus [12]): inactive; Activity (Mus musculus [13]): inactive; Activity (Mus musculus [14]): inactive; Activity (Mus musculus [15]): Active; Activity (Mus musculus [16]): Non-Toxic; inhibition [17]: Dose-dependent effect; inhibition [18]: Dose-dependent effect
COc1cc(OC)c(C(=O)/C=C/c2ccccc2OC)c(OC)c1 | 48% | 65% | –
COc1cccc(/C=C/C(=O)c2c(OC)cccc2OC)c1 | 100% | 82% | –
COc1cc(OC)c(/C=C/C(=O)c2c(OC)cc(OC)cc2OC)c(OC)c1 | 67% | 68% | –
COc1ccc(C(=O)/C=C/c2c(OC)cc(OC)cc2OC)c(O)c1 | 95% | 91% | –
COc1cc(OC)c(C2CCN(C)CC2)c(O)c1C(=O)/C=C/c1c(Cl)cccc1Cl | 6% | 24% | –
COc1cc(O)c(C(=O)/C=C/c2c(OC)cccc2OC)c(OC)c1 | 81% | 85% | –
COc1cccc(OC)c1/C=C/C(=O)c1c(OC)cccc1OC | 94% | 96% | –
O=C(O)c1cc(=O)c2c(OCC(O)COc3cccc4oc(C(=O)O)cc(=O)c34)cccc2o1 | – | – | Activity (Mus musculus [19]): inactive
COc1cc(OC)c(C(=O)/C=C/c2ccc(OC)c(O)c2)c(OC)c1 | 40% | 54% | –
COc1ccc(C(=O)/C=C/c2c(OC)cc(OC)cc2OC)c(OC)c1 | 76% | 86% | –
COc1cc(OC)c(/C=C/C(=O)c2c(OC)cc(N)cc2OC)c(OC)c1 | 63% | 75% | –
COc1cc(OC)c(C(=O)/C=C/c2cc(OC)c(OC)cc2OC)c(OC)c1 | 53% | 51% | –
C[C@@H]1C[C@H]2[C@@H]3CCC4=CC(=O)C=C[C@]4(C)[C@@]3(F)[C@@H](O)C[C@]2(C)[C@@]1(O)C(=O)CO | – | – | Activity (Mus musculus [20]): Active; Activity (Mus musculus [21]): Active
CCC(=O)OCC(=O)[C@@]1(OC(=O)CC)[C@@H](C)C[C@H]2[C@@H]3CCC4=CC(=O)C=C[C@]4(C)[C@@]3(F)[C@@H](O)C[C@@]21C | – | – | Activity (Mus musculus [22]): Active
